Results published in ChEMBL document CHEMBL3638431, “2-PYRIDYLOXY-4-NITRILE OREXIN RECEPTOR ANTAGONISTS” (2013).

Experiments:
[1] = biological target: T1, Orexin/Hypocretin receptor type 1 (Homo sapiens, UniProt O43613); assay: (§1) Radioligand Binding Assay: The inhibition constant (Ki) is determined using a radioligand binding assay (described in Bergman et. al. Bioorg. Med. Chem. Lett. 2008, 18, 1425-1430).
T1 sequence (O43613 whole entry): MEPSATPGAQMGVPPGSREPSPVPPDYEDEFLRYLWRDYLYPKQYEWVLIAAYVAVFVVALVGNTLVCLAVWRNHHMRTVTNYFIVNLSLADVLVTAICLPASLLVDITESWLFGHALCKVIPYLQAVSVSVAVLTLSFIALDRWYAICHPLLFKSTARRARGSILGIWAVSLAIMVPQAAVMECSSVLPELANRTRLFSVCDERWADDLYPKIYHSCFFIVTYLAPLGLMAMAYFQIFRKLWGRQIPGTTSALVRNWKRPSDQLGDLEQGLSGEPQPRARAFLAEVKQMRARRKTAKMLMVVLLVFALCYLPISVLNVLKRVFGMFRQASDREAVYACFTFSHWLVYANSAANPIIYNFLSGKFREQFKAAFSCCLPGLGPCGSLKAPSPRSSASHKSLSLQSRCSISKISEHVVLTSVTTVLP

Orexin receptor type 2 = biological target: T2, Orexin receptor type 2 (Homo sapiens, UniProt O43614); assay: as §1
T2 sequence (O43614 whole entry): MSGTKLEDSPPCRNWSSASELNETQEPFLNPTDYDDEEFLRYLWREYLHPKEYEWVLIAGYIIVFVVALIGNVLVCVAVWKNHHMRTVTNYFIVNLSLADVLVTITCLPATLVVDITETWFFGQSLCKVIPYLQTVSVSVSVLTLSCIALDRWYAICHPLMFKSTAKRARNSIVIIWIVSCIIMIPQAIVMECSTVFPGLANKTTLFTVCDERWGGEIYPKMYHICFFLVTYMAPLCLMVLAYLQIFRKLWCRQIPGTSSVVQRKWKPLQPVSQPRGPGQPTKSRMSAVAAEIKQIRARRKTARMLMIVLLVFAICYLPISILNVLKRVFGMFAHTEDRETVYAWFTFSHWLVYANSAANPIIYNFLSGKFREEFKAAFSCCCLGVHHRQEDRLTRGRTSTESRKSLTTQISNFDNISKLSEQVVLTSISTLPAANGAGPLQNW

[2] = biological target: T3, Orexin/Hypocretin receptor type 1 (Rattus norvegicus, UniProt P56718); assay: FLIPR Ca2+ Flux Assay: Chinese hamster ovary (CHO) cells expressing the rat orexin-1 receptor or the human orexin-2 receptor, are grown in Iscove's modified DMEM containing 2 mM L-glutamine, […], 1% hypoxanthine-thymidine supplement, 100 U/ml penicillin, 100 ug/ml streptomycin and 10% heat-inactivated fetal calf serum (FCS). The cells are seeded at 20,000 cells/well into Becton-Dickinson black 384-well clear bottom sterile plates coated with poly-D-lysine. All reagents were from GIBCO-Invitrogen Corp. The seeded plates are incubated overnight at 37° C. and 5% CO2. Ala-6,12 human orexin-A as the agonist is prepared as a 1 mM stock solution in 1% bovine serum albumin (BSA) and diluted in assay buffer (HBSS containing 20 mM HEPES, 0.1% BSA and 2.5 mM probenecid, pH7.4) for use in the assay at a final concentration of 70 pM. Test compounds are prepared as 10 mM stock solution in DMSO, then diluted in 384-well plates, first in DMSO, then assay buffer. On the day of the assay, cells are washed 3 times with 100 ul assay buffer and then incubated for 60 min (37° C., 5% CO2) in 60 ul assay buffer containing 1 uM Fluo-4AM ester, 0.02% pluronic acid, and 1% BSA. The dye loading solution is then aspirated and cells are washed 3 times with 100 ul assay buffer. 30 ul of that same buffer is left in each well. Within the Fluorescent Imaging Plate Reader (FLIPR, Molecular Devices), test compounds are added to the plate in a volume of 25 ul, incubated for 5 min and finally 25 ul of agonist is added. Fluorescence is measured for each well at 1 second intervals for 5 minutes and the height of each fluorescence peak is compared to the height of the fluorescence peak induced by 70 pM Ala-6,12 orexin-A with buffer in place of antagonist.; format: functional
T3 sequence (P56718 whole entry): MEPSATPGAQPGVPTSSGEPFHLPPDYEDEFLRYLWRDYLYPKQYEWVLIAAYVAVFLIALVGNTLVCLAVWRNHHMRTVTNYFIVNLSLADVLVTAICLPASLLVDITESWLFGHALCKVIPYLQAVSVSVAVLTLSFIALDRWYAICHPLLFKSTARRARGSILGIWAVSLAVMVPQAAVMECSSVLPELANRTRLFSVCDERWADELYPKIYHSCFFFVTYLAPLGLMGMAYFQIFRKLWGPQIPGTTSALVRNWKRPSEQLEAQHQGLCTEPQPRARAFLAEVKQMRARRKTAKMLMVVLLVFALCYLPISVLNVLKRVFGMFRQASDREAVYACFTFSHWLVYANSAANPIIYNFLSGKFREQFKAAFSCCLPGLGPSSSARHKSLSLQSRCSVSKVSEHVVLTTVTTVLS

Compound | Ki [1] | Ki (Orexin receptor type 2) | IC50 [2]
C[C@@H]1CC[C@@H](Oc2cc(C#N)ccn2)CN1C(=O)c1ccc(C#N)cc1-n1nccn1 | 34500 nM | 1360 nM | 
C[C@@H]1CC[C@@H](Oc2cc(C#N)ccn2)CN1C(=O)c1ccccc1-c1ncccn1 | 761 nM | 1.3 nM | 4870 nM
C[C@@H]1CC[C@@H](Oc2cc(C#N)ccn2)CN1C(=O)c1ccccc1-n1nccn1 | 813 nM | 1.6 nM | 3650 nM
Cc1nc(-c2ccccc2C(=O)N2C[C@H](Oc3cc(C#N)ccn3)CC[C@H]2C)no1 | 1660 nM | 4.5 nM | > 10000 nM
